Data taken from patent US9546377B2, “Methods for the identification of genes involved in abiotic stress tolerance in plants” (priority 2011, dated 2017).

How the values were obtained:
[1] = system: Arabidopsis; experiment: Paraquat tolerance assay, dose effect of paraquat on growth; format: in vivo
Method: In light-exposed plants, paraquat accepts electrons from photosystem I and transfers them to molecular oxygen. In this manner, destructive reactive oxygen species are produced. A range of paraquat concentrations were tested in Arabidopsis. […] Compared to wild-type plants, mutant plants have larger size and less-bleached leaves under these conditions. A quantitative assay based on leaf area and color (similar to low N plate analysis) can be easily integrated into this screen.
The dose effect of paraquat on Arabidopsis growth was determined. […] Therefore this concentration was used for paraquat resistance assay. […] Tsu can serve as a positive control for this assay.
Seeds were surface sterilized and stratified for 96 hrs. 18 seeds for each tested line and Col-0 were inoculated in one plate, then cultured in a growth chamber programmed for 16 h of light at 22° C. temperature, 150 μE light intensity and 50% relative humidity. Growth phenotype was scored based on leaf size and color at 7-day-after inoculation.
Seeds were inoculated on a square paraquat plate. 18 seeds of test lines and 18 seeds of Col-0 were evenly put on the plate side by side. Plates were then cultured in the chambers set at 16 h of light at 22° C. temperature, 150 μE light intensity and 50% relative humidity.

[2] = system: Arabidopsis; experiment: Kill curves for individual osmotic stress agents; format: in vivo; conditions: kill curve experiments, each stress agent individually in the media
Description: The standardization of growth conditions and generation of kill curves for various osmotic stress agents individually was done before the development of quad stress assay conditions. […] As there were four stress agents being used together, a quarter of each together in a solution would denote 100% stress or an osmotic pressure of 1.23 MPa. Therefore the following concentrations of each component were used in “100% quad media”.
Assay Conditions: Seeds were surface sterilized and stratified for 48 hrs. About 100 seeds were inoculated in one plate and cultured in a growth chamber programmed for 16 h of light at 22° C. temperature and 50% relative humidity. Germination was scored as the emergence of radicle. Assay Plan: A 6-day assay and an extended 10-day assay were done to test the seeds from the 48 transgenic Arabidopsis lines for osmotic stress tolerance. • Day 0—Surface sterilized seeds of different drought leads and stratify. • Day 2—Inoculated onto quad media. • Day 4—Counted for germination (48 hrs). • Day 5—Counted for germination (72 hrs)/Take pictures or Scan plates from 48 hrs to 96 hrs. • Day 6—Counted for germination (96 hrs). • For the extended 10-day assay, germination was scored from 48 hrs to 96 hrs. On day 7, 8, 9 and 10, the emerged seedlings were checked for greenness and four leaf stage. Preparation of Media • Germination medium (GM or 0% quad media) for 1 liter: […]

Structure (SMILES) | effect on Col-0 plants ([1]; 0.03 μM paraquat) | concentration that greatly inhibited Arabidopsis growth ([1]; 7-day growth on plates) | concentration at which the effect on growth can be detected ([1]; in vivo) | concentration giving dose-dependent growth inhibition and leaf bleach ([1]; range of paraquat concentrations tested in Arabidopsis) | lethal concentration [2]
C[n+]1ccc(-c2cc[n+](C)cc2)cc1 [paraquat] | plants died one-week-after germination | 0.03 µM | 0.01 µM | 0.01 to 0.1 µM | –
OC[C@@H](O)[C@@H](O)[C@H](O)[C@@H](O)CO [sorbitol] | – | – | – | – | 500 mM
[Cl-].[Na+] [NaCl, sodium chloride] | – | – | – | – | 150 mM
OC[C@@H](O)[C@@H](O)[C@H](O)[C@H](O)CO [mannitol] | – | – | – | – | 500 mM
